Literature values, collected in patent US8962847B2, “Multicomponent crystals made of ([2-amino-6-(4-fluoro-benzylamino)-pyridin-3-yl]-carbamic acid ethyl ester and an arylpropionic acid” (TEVA GmbH, priority 2010, dated 2015).
Structures can show the parent of a compound that is named as a salt. Where two headings read alike, the source gives them in different places.

What was measured:
[1] = tested on: pain, fever, inflammation; settings: in vivo
[2] = tested on: antinociceptive (pain perception inhibiting) activity; settings: rat, flupirtine maleate 35 mg per kg with various dosages of NSAIDS
[3] = tested on: antinociceptive (pain perception inhibiting) activity; settings: mice, flupirtine maleate 15 mg per kg with various dosages of NSAIDS

Row | SMILES | beginning of action compared with the racemic mixture of ibuprofen [1] | effect on the antinociceptive activity of paracetamol, acetyl salicylic acid, and diclofenac [2] | effect on the antinociceptive activity of paracetamol, acetyl salicylic acid, and diclofenac [3]
1 | CC(C)Cc1ccc([C@H](C)C(=O)O)cc1 [dexibuprofen, (+)-(2S)-2-[4-(2-methylpropyl)-phenyl]propanoic acid] | somewhat faster | – | –
2 | CCOC(=O)Nc1ccc(NCc2ccc(F)cc2)nc1N [flupirtine maleate] | – | enhances | enhances
